Values belong to the compound of their own block, whether it stands above or below them. Active and inactive are the calls of the source. The calls are words filed in the database; no cut-off is given here.
Experiments:
[1] = test system: SK-MEL-5; experiment: Induction of cell cycle arrest in human SK-MEL-5 cells assessed as accumulation of cells at G2/M phase at 5 uM incubated for 48 hrs by propidium iodide staining based flow cytometry (reference value: 8.36 %); type: functional
[2] = test system: SK-MEL-5; experiment: Induction of cell cycle arrest in human SK-MEL-5 cells assessed as accumulation of cells at S phase at 5 uM incubated for 48 hrs by propidium iodide staining based flow cytometry (reference value: 25.36 %); type: functional
[3] = test system: SK-MEL-5; experiment: Induction of apoptosis in human SK-MEL-5 cells assessed as early apoptotic cells at 5 uM incubated for 48 hrs by Annexin V-APC/7-AAD staining based flow cytometric analysis (reference value: 2.29 %); type: functional
[4] = test system: SK-MEL-5; experiment: Induction of apoptosis in human SK-MEL-5 cells assessed as necrotic cells at 5 uM incubated for 48 hrs by Annexin V-APC/7-AAD staining based flow cytometric analysis (reference value: 1.05 %); type: functional
[5] = test system: SK-MEL-5; experiment: Induction of apoptosis in human SK-MEL-5 cells assessed as viable cells at 5 uM incubated for 48 hrs by Annexin V-APC/7-AAD staining based flow cytometric analysis (reference value: 95.77 %); type: functional; settings: for viability at 5 µM: Homo sapiens, SK-MEL-5, read-out: Activity
[6] = test system: SK-MEL-5; experiment: Induction of cell cycle arrest in human SK-MEL-5 cells assessed as accumulation of cells at G0/G1 phase at 5 uM incubated for 48 hrs by propidium iodide staining based flow cytometry (reference value: 66.27 %); type: functional
[7] = test system: SK-MEL-5; experiment: cells; settings: Homo sapiens, SK-MEL-5, 72 h
Description: Antiproliferative activity against human SK-MEL-5 cells assessed as inhibition of cell growth incubated for 72 hrs by MTT assay

[8] = test system: SK-MEL-5; experiment: Induction of apoptosis in human SK-MEL-5 cells assessed as late apoptotic cells at 5 uM incubated for 48 hrs by Annexin V-APC/7-AAD staining based flow cytometric analysis (reference value: 0.9 %); type: functional
[9] = test system: SK-MEL-5; experiment: Antitumor activity against human SK-MEL-5 cells xenografted with BALB/c mouse assessed as tumor growth inhibition at 30 mg/kg,ip administrated for 21 consecutive days; type: functional; settings: read-out: TGI
[10] = test system: A-375; experiment: cells; settings: Homo sapiens, A-375, 72 h
Description: Antiproliferative activity against human A-375 cells assessed as inhibition of cell growth incubated for 72 hrs by MTT assay

[11] = in vitro; settings: human, MRC5 cells
Description: Antiproliferative activity against human MRC5 cells assessed as inhibition of cell growth incubated for 72 hrs by MTT assay

[12] = Toxicity in BALB/c mouse xenografted with human SK-MEL-5 cells assessed as body weight loss at 30 mg/kg,ip administrated for 21 consecutive days; type: organism-based; settings: in vivo
[13] = test system: SK-MEL-5; experiment: Induction of cell cycle arrest in human SK-MEL-5 cells assessed as accumulation of cells at G0/G1 phase at 1 uM incubated for 48 hrs by propidium iodide staining based flow cytometry (reference value: 66.27 %); type: functional
[14] = test system: SK-MEL-5; experiment: Inhibition of cell invasion in human SK-MEL-5 cells at 0.2 to 5 uM incubated for 48 hrs by transwell assay; type: functional, cell-based; settings: dose 0.2-5 µM
[15] = test system: SK-MEL-5; experiment: Induction of cell cycle arrest in human SK-MEL-5 cells assessed as accumulation of cells at G2/M phase at 0.2 uM incubated for 48 hrs by propidium iodide staining based flow cytometry (reference value: 8.36 %); type: functional
[16] = test system: SK-MEL-5; experiment: Inhibition of cell migration in human SK-MEL-5 cells incubated for 24 hrs by scratch assay; type: functional, cell-based
[17] = test system: SK-MEL-5; experiment: Induction of apoptosis in human SK-MEL-5 cells assessed as early apoptotic cells at 0.2 uM incubated for 48 hrs by Annexin V-APC/7-AAD staining based flow cytometric analysis (reference value: 2.29 %); type: functional
[18] = test system: SK-MEL-5; experiment: Induction of apoptosis in human SK-MEL-5 cells assessed as early apoptotic cells at 1 uM incubated for 48 hrs by Annexin V-APC/7-AAD staining based flow cytometric analysis (reference value: 2.29 %); type: functional
[19] = test system: SK-MEL-5; experiment: Induction of apoptosis in human SK-MEL-5 cells assessed as viable cells at 0.2 uM incubated for 48 hrs by Annexin V-APC/7-AAD staining based flow cytometric analysis (reference value: 95.77 %); type: functional; settings: read-out: Activity
[20] = test system: SK-MEL-5; experiment: Induction of apoptosis in human SK-MEL-5 cells assessed as viable cells at 1 uM incubated for 48 hrs by Annexin V-APC/7-AAD staining based flow cytometric analysis (reference value: 95.77 %); type: functional; settings: read-out: Activity
[21] = test system: SK-MEL-5; experiment: Induction of apoptosis in human SK-MEL-5 cells assessed as late apoptotic cells at 1 uM incubated for 48 hrs by Annexin V-APC/7-AAD staining based flow cytometric analysis (reference value: 0.9 %); type: functional
[22] = test system: SK-MEL-5; experiment: Antiproliferative activity against human SK-MEL-5 cells assessed as upregulation of PPARgamma expression incubated for 48 hrs by Western blotting analysis; type: functional, cell-based
[23] = test system: SK-MEL-5; experiment: Induction of apoptosis in human SK-MEL-5 cells assessed as necrotic cells at 0.2 uM incubated for 48 hrs by Annexin V-APC/7-AAD staining based flow cytometric analysis (reference value: 1.05 %); type: functional
[24] = test system: SK-MEL-5; experiment: Induction of apoptosis in human SK-MEL-5 cells assessed as necrotic cells at 1 uM incubated for 48 hrs by Annexin V-APC/7-AAD staining based flow cytometric analysis (reference value: 1.05 %); type: functional
[25] = test system: SK-MEL-5; experiment: Inhibition of glycolysis in human SK-MEL-5 cells assessed as reduction in lactate production at 2 uM incubated for 48 hrs in presence of GW9662 by chekineTM micro lactate Assay; type: functional, cell-based
[26] = target: Histone deacetylase 4 (Homo sapiens, UniProt P56524); experiment: Inhibition of HDAC4 (unknown origin) using Ac-Leu-Gly-Lys(Tfa)-AMC as substrate by spectramax microplate reader analysis
Chain of Histone deacetylase 4 (P56524 whole entry): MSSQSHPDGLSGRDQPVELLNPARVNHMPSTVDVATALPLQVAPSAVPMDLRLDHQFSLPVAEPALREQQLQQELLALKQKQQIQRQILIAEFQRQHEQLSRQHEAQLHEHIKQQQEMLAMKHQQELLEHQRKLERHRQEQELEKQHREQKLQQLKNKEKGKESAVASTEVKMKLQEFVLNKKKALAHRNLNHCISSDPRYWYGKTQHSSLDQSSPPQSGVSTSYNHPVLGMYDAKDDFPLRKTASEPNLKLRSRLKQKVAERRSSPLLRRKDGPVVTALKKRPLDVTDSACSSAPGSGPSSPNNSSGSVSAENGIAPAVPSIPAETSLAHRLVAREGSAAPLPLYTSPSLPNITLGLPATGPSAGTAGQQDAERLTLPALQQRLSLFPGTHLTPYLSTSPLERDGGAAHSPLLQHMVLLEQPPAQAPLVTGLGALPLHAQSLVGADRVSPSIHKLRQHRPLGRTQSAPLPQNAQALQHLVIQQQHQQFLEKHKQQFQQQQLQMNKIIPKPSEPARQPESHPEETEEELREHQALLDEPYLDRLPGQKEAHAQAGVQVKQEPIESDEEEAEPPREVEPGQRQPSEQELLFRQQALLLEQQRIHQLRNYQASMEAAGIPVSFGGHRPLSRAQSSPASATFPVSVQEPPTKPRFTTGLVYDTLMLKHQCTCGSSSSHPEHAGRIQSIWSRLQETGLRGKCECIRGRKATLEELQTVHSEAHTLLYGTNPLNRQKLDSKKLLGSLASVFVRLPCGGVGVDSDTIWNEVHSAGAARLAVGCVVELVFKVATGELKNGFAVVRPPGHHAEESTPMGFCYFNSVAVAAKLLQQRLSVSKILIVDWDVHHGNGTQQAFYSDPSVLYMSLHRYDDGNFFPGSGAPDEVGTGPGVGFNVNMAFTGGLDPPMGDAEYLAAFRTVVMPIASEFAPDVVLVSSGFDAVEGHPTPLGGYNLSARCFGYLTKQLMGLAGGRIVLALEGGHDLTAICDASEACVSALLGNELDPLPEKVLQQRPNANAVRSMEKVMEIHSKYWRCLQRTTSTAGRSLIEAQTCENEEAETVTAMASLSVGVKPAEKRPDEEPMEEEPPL

[27] = test system: SK-MEL-5; experiment: Antiproliferative activity against human SK-MEL-5 cells assessed as inhibition of cell growth incubated for 72 hrs in presence of GW9662 by MTT assay; type: functional, cell-based
[28] = test system: SK-MEL-5; experiment: Induction of apoptosis in human SK-MEL-5 cells assessed as late apoptotic cells at 0.2 uM incubated for 48 hrs by Annexin V-APC/7-AAD staining based flow cytometric analysis (reference value: 0.9 %); type: functional
[29] = test system: SK-MEL-5; experiment: Induction of cell cycle arrest in human SK-MEL-5 cells assessed as accumulation of cells at S phase at 1 uM incubated for 48 hrs by propidium iodide staining based flow cytometry (reference value: 25.36 %); type: functional
[30] = test system: SK-MEL-5; experiment: Induction of cell cycle arrest in human SK-MEL-5 cells assessed as accumulation of cells at G2/M phase at 1 uM incubated for 48 hrs by propidium iodide staining based flow cytometry (reference value: 8.36 %); type: functional
[31] = test system: SK-MEL-5; experiment: Induction of cell cycle arrest in human SK-MEL-5 cells assessed as accumulation of cells at S phase at 0.2 uM incubated for 48 hrs by propidium iodide staining based flow cytometry (reference value: 25.36 %); type: functional
[32] = test system: SK-MEL-5; experiment: Induction of cell cycle arrest in human SK-MEL-5 cells assessed as accumulation of cells at G0/G1 phase at 0.2 uM incubated for 48 hrs by propidium iodide staining based flow cytometry (reference value: 66.27 %); type: functional

Structure (SMILES): O=C(CCCCCCC(=O)Nc1ccccc1)NO [VORINOSTAT]
Activity [1]: 19.87% | Activity [2]: 24.22% | Activity [3]: 32.5% | Activity [4]: 2.39% | Activity [5]: 57.12% | Activity [6]: 55.91% | IC50 [7]: 2.16 µM | Activity [8]: 7.99%

Structure (SMILES): O=C(CCc1ccc(COc2ccc(Cl)c3cccnc23)cc1)NO
IC50 [10]: 22.7 µM | IC50 [7]: 17.4 µM | IC50 at 72 h [11]: > 50 µM

Structure (SMILES): O=C(CCCCCCOc1cccc2cccnc12)NO
Activity [1]: 22.01% | Activity [12]: Non-toxic | Activity [13]: 59.45% | inhibition [14]: Active | Activity [2]: 27.75% | inhibition in vivo at 30 mg/kg [9]: 50.2% | Activity [15]: 11.27% | inhibition [16]: Dose-dependent-effect | Activity [3]: 35.15% | Activity [17]: 3.68% | Activity [18]: 9.75% | Activity [4]: 2.39% | viability at 0.2 µM [19]: 92.7% | viability at 1 µM [20]: 77.8% | Activity [21]: 8.03% | Activity [22]: Dose-dependent-effect | Activity [23]: 0.85% | Activity [24]: 4.41% | viability at 5 µM [5]: 49.9% | inhibition [25]: inactive | IC50 [26]: 19.3 µM | Activity [27]: inactive | Activity [6]: 50.23% | IC50 [10]: 1.2 µM | IC50 [7]: 0.93 µM | Activity [8]: 12.52% | Activity [28]: 2.81% | Activity [29]: 24.55% | Activity [30]: 16% | Activity [31]: 23.77% | Activity [32]: 64.96% | IC50 at 72 h [11]: 3.64 µM

Structure (SMILES): O=C(NO)c1ccccc1COc1cccc2cccnc12
IC50 [10]: > 50 µM | IC50 [7]: 46.6 µM | IC50 at 72 h [11]: > 50 µM

Structure (SMILES): O=C(/C=C/c1ccc(COc2ccc(Cl)c3cccnc23)cc1)NO
IC50 [10]: 3.45 µM | IC50 [7]: 3.7 µM | IC50 at 72 h [11]: 6.94 µM

Structure (SMILES): O=C(NO)c1ccc(COc2ccc(Cl)c3cccnc23)cc1
IC50 [10]: > 50 µM | IC50 [7]: > 50 µM | IC50 at 72 h [11]: > 50 µM

Structure (SMILES): O=C(/C=C/c1ccc(COc2cccc3cccnc23)cc1)NO
IC50 [10]: 3.72 µM | IC50 [7]: 3.67 µM | IC50 at 72 h [11]: 7.34 µM

Structure (SMILES): O=C(CCCCOc1ccc(Cl)c2cccnc12)NO
IC50 [10]: 22.2 µM | IC50 [7]: 21.6 µM | IC50 at 72 h [11]: > 50 µM

Structure (SMILES): O=C(CCCCCCOc1ccc(Cl)c2cccnc12)NO
IC50 [10]: 3.68 µM | IC50 [7]: 3.47 µM | IC50 at 72 h [11]: 8.07 µM

Continued, in another order:

IC50 [10]: 6.08 µM | IC50 [7]: 5 µM | IC50 at 72 h [11]: 20.4 µM
Structure (SMILES): Oc1ccc(Cl)c2cccnc12 [CLOXYQUIN]
Activity [1]: 13.48% | Activity [2]: 27.67% | inhibition in vivo at 30 mg/kg [9]: 24.3% | Activity [3]: 6.96% | Activity [4]: 3.08% | viability at 5 µM [5]: 85.1% | Activity [6]: 58.85% | Activity [8]: 4.88%

IC50 [10]: 29.5 µM | IC50 [7]: 24.2 µM | IC50 at 72 h [11]: > 50 µM
Structure (SMILES): O=C(NO)c1cccc(COc2ccc(Cl)c3cccnc23)c1

IC50 [10]: 15 µM | IC50 [7]: 13.7 µM | IC50 at 72 h [11]: 42.1 µM
Structure (SMILES): O=C(CCCCCOc1ccc(Cl)c2cccnc12)NO

IC50 [10]: 6.57 µM | IC50 [7]: 6.27 µM | IC50 at 72 h [11]: 19.5 µM
Structure (SMILES): O=C(CCCOc1ccc(Cl)c2cccnc12)NO

IC50 [10]: 15.1 µM | IC50 [7]: 15 µM | IC50 at 72 h [11]: 18.4 µM
Structure (SMILES): O=C(NO)c1ccc(COc2cccc3cccnc23)cc1

IC50 [10]: 9.78 µM | IC50 [7]: 8.53 µM | IC50 at 72 h [11]: 21.3 µM
Structure (SMILES): O=C(NO)c1ccccc1COc1ccc(Cl)c2cccnc12

IC50 [10]: 11.9 µM | IC50 [7]: 10.8 µM | IC50 at 72 h [11]: 23.3 µM
Structure (SMILES): O=C(NO)c1ccc(CCOc2ccc(Cl)c3cccnc23)cc1

IC50 [10]: 13.3 µM | IC50 [7]: 13.7 µM | IC50 at 72 h [11]: 29 µM
Structure (SMILES): O=C(NO)c1ccc(CCOc2cccc3cccnc23)cc1

IC50 [10]: 13.8 µM | IC50 [7]: 12.7 µM | IC50 at 72 h [11]: 28.1 µM
Structure (SMILES): O=C(CCCCCOc1cccc2cccnc12)NO

IC50 [10]: > 50 µM | IC50 [7]: > 50 µM | IC50 at 72 h [11]: > 50 µM
Structure (SMILES): O=C(Cc1ccc(COc2cccc3cccnc23)cc1)NO

IC50 [10]: > 50 µM | IC50 [7]: > 50 µM | IC50 at 72 h [11]: > 50 µM
Structure (SMILES): O=C(CCCCOc1cccc2cccnc12)NO

IC50 [10]: 32.8 µM | IC50 [7]: 29.8 µM | IC50 at 72 h [11]: > 50 µM
Structure (SMILES): O=C(CCCOc1cccc2cccnc12)NO

IC50 [10]: > 50 µM | IC50 [7]: 41.5 µM | IC50 at 72 h [11]: > 50 µM
Structure (SMILES): O=C(NO)c1cccc(COc2cccc3cccnc23)c1
